Data published in patent publication US10456405B2, “Nitric oxide-releasing prodrug molecule of substituted quinazolines” (ZHEJIANG HUAHAI PHARMACEUTICAL CO., LTD, priority 2015, dated 2019).
Where two headings read alike, the source gives them in different places.

Legend:
[1] = Plasma stability in vitro, human plasma; conditions: for Content of Tested Substance (n = 2): human plasma, 2 μM, 37° C., in % (unit assumed); for stability in human plasma: within 2 h
Method: (§1) Experimental method: The tested compounds (2 μM) were added into mouse or human plasma, and incubated at 37° C. Samples were taken at 0, 10, 30, 60 and 120 min respectively. The reaction was stopped by adding a stop agent. The mixture was sufficient shaken, and centrifuged at 4000 rpm for 10 min at 4° C. The supernatant was taken. The concentrations of the tested compounds and their metabolite (H130) in the supernatant were measured by LC-MS/MS.

ApoA-I mRNA = test: Regulation of ApoA-I mRNA in HepG2 cells (real-time PCR); type: cell-based; set-up: key: Active: When 100 μM of the tested compound allowed ApoA-I mRNA in HepG2 cells to increase more than 15%, then the test compound was known as an ApoA active compound; conditions: 100 μM, 48 h, relative to DMSO control
Method: Experiment 5. Regulation of the Tested Compounds on ApoA-I mRNA HepG2 cells were cultured for 24 h in a 24-well plate with 400 μl of MEM medium containing 0.5% (v/v) of fetal bovine serum. Then each of the tested compounds (100 μM) and the positive control RVX-208 (100 μM) were added. The cells were cultured for another 48 h. The medium was aspirated out. After washing with 200 μl of PBS, 85 μl of cell lysis solution was added into the cells in each well. The cells were incubated at room temperature for 5 to 10 min to be completely dissolved and detached. The mRNA was extracted from the cells with a kit. The extracted mRNA were used for a real-time fluorescence quantitative PCR detection with RNA Fluorescence (RiboGreen) Quantitation Assay Kit and ApoA-I mRNA Primer-Probe Mixture from the company of Applied Biosystems.
After obtaining the Ct values, the induction fold of each test compound relative to DMSO control was calculated. The induction fold was used to reflect the ability of regulating ApoA-I mRNA for the tested compounds. When 100 μM of the tested compound allowed ApoA-I mRNA in HepG2 cells to increase more than 15%, then the test compound was known as an ApoA active compound.

[2] = Release of HNO (headspace gas chromatography of nitrous oxide); conditions: for Molar Quantities of N2O/Sample: PBS pH 7.4, 37° C., argon, 90 min
Method: Experiment 2. Experimental study on the tested compounds for releasing HNO HNO rapidly dimerizes and dehydrates to produce nitrous oxide in aqueous solution. In the experiment of detecting HNO, gas chromatographic headspace analysis is generally used to determine the amount of the released nitrous oxide, thereby indirectly detect the level of releasing HNO of the compound.
Experimental procedure: Each of the tested compounds was prepared to 20 mg/mL of mother liquor with DMF. Prior to the start of the experiment, 50 μL of drug mother liquor was placed into a 20 mL headspace sample vial. The tested compound was diluted by adding 5 mL of PBS buffer with pH 7.4. The temperature of the resulting sample was kept at 37° C. under argon gas for 90 min. Then the top gas was extracted for gas chromatographic analysis of nitrous oxide by using Angeli's Salt as a positive compound in the experiment.

[3] = Plasma stability in vitro, mouse plasma; conditions: CD-1 mice plasma, 2 μM, 37° C., in % (unit assumed)
Method: as §1

[4] = Release of nitric oxide in vitro (Griess reagent, nitrite); conditions: 10^−4 mol/L tested substance, phosphate buffer pH 7.4, cysteine 5 mmol/L, 37° C., 1 h; as nitrite
Method: Experiment 1. Experimental Study on the Tested Compounds for Releasing Nitric Oxide in vitro
Experimental Procedure: • (1) Preparation of Griess Reagent: 4 g of aminobenzenesulfonamide, 0.2 g of N-naphthyl ethylene diamine hydrochloride, and 10 mL of 85% phosphoric acid solution were taken to form a solution, which is diluted to 100 mL with distilled water. • (2) Plotting of the standard curve: a serie of standard solution of 0.01, 0.03, 0.05, 0.07, 0.09, 0.2, 0.4 μg/mL of nitrite nitrogen was prepared, 10 mL of each was taken to sufficiently mix with 2.5 mL of Griess reagent, standing at room temperature for 10 min, and its absorbance value at the wavelength of 540 nm was measured. The standard curve was plotted based on the resulting data. • (3) Measuring the amount of the released NO of the tested drug: all of the tested substances were dissolved in dimethylsulfoxide (1 mL) firstly. Then phosphate buffer (pH 7.4) was slowly added dropwise, and shaken. The drug solution was diluted to 50 mL, allowing the buffer solution to contain excess cysteine (5 mmol/L), and the final concentration of the tested substances being 10^−4 mol/L; the solution was incubated at 37° C. 2 mL of the reaction solution was taken to mix with 500 μl of Griess reagent at 1 h respectively, standing at room temperature for 10 min. The absorbance value of the mixture at 540 nm was measured. Isosorbide mononitrate was used as a positive control, and H130 was used as a negative control. The amount of the released NO was represented by the amount of its oxidation product, nitrite (NO2^−).

[5] = rat, in vivo
Method: Experimental method: Intravenous injection solutions (the administration concentrations of the tested compounds were 1 mg/kg) and oral gastric perfusates (the administration concentrations of the test compounds were 5 mg/kg) of the test compounds were prepared, and intravenously and orally administered to three SD rats, respectively. The concentrations of the whole blood for H130 at 0.083 h, 0.25 h, 0.5 h, 1 h, 2 h, 4 h, 8 h, and 24 h after administration were determined by LC-MS/MS, respectively. The pharmacokinetic parameters were compared by a drug-time curve. Sample pretreatment: 150 μL of the whole blood to be tested was aspirated accurately. 600 μL of internal standard solution (diluted to 0.5 μg/mL with methanol) was added, sufficiently mixed by a vortex mixer, and centrifuged at 13000 r/min for 20 min at 4° C. 3 μL of the supernatant was taken into a sample vial.
Chromatographic conditions: C18 reversed-phase chromatographic column; gradient elution with mobile phase A: water/acetonitrile (v:v=95:5) with 0.025% of formic acid and 1 mM of ammonium acetate added thereto, and mobile phase B: acetonitrile/water (v:v=95:5) with 0.025% of formic acid and 1 mM of ammonium acetate added thereto.

db/db mice = test: Serum NO and heart eNOS in db/db mice after oral gavage; type: in vivo; conditions: blank = 100, oral gavage 150 mg/kg (isosorbide mononitrate 5 mg/kg), 1 h after administration (H101: 2 h)
Text: Experimental method: 25 eight-week-old db/db mice (strain: BKS.Cg−+Leprdb/+leprdb/JclSlac; grade: SPF; gender: male; source: Shanghai SLAC Laboratory Animal Co., Ltd.) were selected. 3 of them were selected as the blank administration control. 2 mice were used as the positive drug control (isosorbide mononitrate). The remaining 20 mice were randomly divided into 5 groups, 4 mice per group, which are H101 administration group, H111 administration group, H116 administration group, H119 administration group, and H130 administration group. The tested compounds of the positive drug control group and each administration group were dissolved in DMSO. Then PEG400 was added. The mixture was shaken and mixed thoroughly. At last, 10% of HP-β-CD was added. The mixture was shaken and mixed thoroughly. The ratio of each solvent was DMSO: PEG400:10% of HP-β-CD=5:67.5:27.5. The administration group was administered by oral gavage at the dose of 150 mg/kg. The positive drug control group was administered at the dose of 5 mg/kg. The mice in the H101 administration group were sacrificed at 2 h after the administration. The mice in the remaining administration groups were sacrificed at 1 h after the administration. The blood was collected respectively into 1.5 mL centrifuge tube, standing at room temperature for more than 30 min, and then centrifuged (3000 rpm, 10 min). The supernatant serum was aspirated, and stored at −80° C. for testing. After the blood was collected, the heart was cut with the thoracic aorta. Three parts of the heart were weighed and placed into cryovials, rapidly frozen in liquid nitrogen, and cryopreserved at −80° C. for testing. The aorta and aortic arch were weighed, rapidly frozen in liquid nitrogen, and cryopreserved at −80° C. for testing. The content of NO in the serum of the […] mice was determined by a total NO test kit (Beyotime). The content of NOS in the heart of the mice was determined with an NOS test kit (Beyotime). The content of eNOS was calculated by the difference between the measured values before and after adding the eNOS inhibitor L-NAME (Beyotime).

apoE−/− mice = test: apoE−/− mouse atherosclerosis model, high-fat diet 10 weeks; type: in vivo
Text: Experimental method: 36 eight-week-old male apoE-/- mice were selected and randomly divided into a blank administration group, an […] administration group, an […] administration group, an […] administration group, an […] administration group, and an […] administration group, 6 mice per group. The mice in each group were fed with high-fat diet for 10 weeks. At the beginning of the high-fat feeding, the mice in each group were administrated. Each tested compound was intragastric administered at the dose of 150 mg/kg twice a day. The blank administration group was given corresponding dose of saline. […] After the blood was taken, the serum, heart, and aorta were isolated. The levels of total cholesterol (TC), high density lipoprotein cholesterol (HDL-C), and low density lipoprotein cholesterol (LDL-C) in the serum of the mice in each group were measured by automatic biochemical analyzer. The ApoA1 expression level was detected with an ApoA1 kit. The content of NO in the serum of the mice was determined with a total NO test kit (Beyotime). The NOS activities of the heart, aorta, and serum were determined with an NOS test kit (Beyotime). The content of eNOS was calculated by the difference between the measured values determined before and after adding eNOS inhibitor L-NAME (Beyotime).

[6] = blank administration group = 100, 150 mg/kg twice a day, 10 weeks
[7] = serum, high-fat diet 10 weeks, intragastric 150 mg/kg twice a day

Row | SMILES | Content of Tested Substance (n = 2) ([1]; 0 min) | Content of Tested Substance (n = 2) ([1]; 10 min) | Content of Tested Substance (n = 2) ([1]; 30 min) | Content of Tested Substance (n = 2) ([1]; 60 min) | Content of Tested Substance (n = 2) ([1]; 120 min) | stability in human plasma [1] | Upregulation of Apoa-I Mrna Level (ApoA-I mRNA) | Molar Quantities of N2O/Sample [2] [%] | Content of Tested Substance (n = 2) ([3]; 0 min) | Content of Tested Substance (n = 2) ([3]; 10 min) | Content of Tested Substance (n = 2) ([3]; 30 min) | Content of Tested Substance (n = 2) ([3]; 60 min) | Content of Tested Substance (n = 2) ([3]; 120 min) | Amount of Released No [4] [µM] | further results
1 | COc1cc(OC)c2c(=O)[nH]c(-c3cc(C)c(OCCOC(=O)ONS(=O)(=O)c4ccc(C)o4)c(C)c3)nc2c1 [Compound H104, N-((2-(4-(5,7-dimethoxy-4-oxo-3,4-dihydroquinazolin-2-yl)-2,6-dimethylphenoxy)ethoxy)carbonyloxy)-5-methylfuran-2-sulfonamide] | 100.0 | 99.5 | 88.7 | 81.1 | 75.8 | good stability | Active | 23.6 | 100.0 | 0.5 | 0.0 | 0.0 | 0.3 |  | 
2 | COc1cc(OC)c2c(=O)[nH]c(-c3cc(C)c(OCCOC(=O)CCC(=O)OCC(CO[N+](=O)[O-])(CO[N+](=O)[O-])CO[N+](=O)[O-])c(C)c3)nc2c1 [Compound H106, 2-[4-(5,7-dimethoxy-4-oxo-3,4-dihydro-quinazolin-2-yl)-2,6-dimethyl-phenoxy]-ethyl 3-(nitroxy)-2,2-di((nitroxy)methyl) propyl succinate] |  |  |  |  |  |  | Active |  |  |  |  |  |  | 2.56 | 
3 | COc1cc(OC)c2c(=O)[nH]c(-c3cc(C)c(OCCOC(=O)CCC(CO[N+](=O)[O-])O[N+](=O)[O-])c(C)c3)nc2c1 (stereo not drawn) [Compound H108, 2-[4-(5,7-dimethoxy-4-oxo-3,4-dihydro-quinazolin-2-yl)-2,6-dimethyl-phenoxy]-ethyl 4,5-dinitroxy-pentanoate] | 100.0 | 101.5 | 95.5 | 93.8 | 85.3 | good stability | Active |  | 100.0 | 0.5 | 0.3 | 1.7 | 0.3 | 0.33 | 
4 | COc1cc(OC)c2c(=O)[nH]c(-c3cc(C)c(OCCOC(=O)CNC(=O)CCCO[N+](=O)[O-])c(C)c3)nc2c1 [Compound H109, 2-[4-(5,7-dimethoxy-4-oxo-3,4-dihydro-quinazolin-2-yl)-2,6-dimethyl-phenoxy]-ethyl (4-nitroxy-butyrylamido)-acetate] |  |  |  |  |  |  | Active |  |  |  |  |  |  | 1.49 | 
5 | COc1cc(OC)c2c(=O)[nH]c(-c3cc(C)c(OCCOC(=O)CC(N)C(=O)OCC(CO[N+](=O)[O-])O[N+](=O)[O-])c(C)c3)nc2c1.Cl (stereo not drawn) [Compound H118, 1-(2,3-dinitroxy-propyl) 4-{2-[4-(5,7-dimethoxy-4-oxo-3,4-dihydro-quinazolin-2-yl)-2,6-dimethyl-phenoxy]-ethyl}2-amino-succinate hydrochloride] |  |  |  |  |  |  | Active |  |  |  |  |  |  | 1.74 | release of prototype compound H130 after administration [5]: can be rapidly released; AUCRatio (Dosage Calibration) ([5]; iv, 1 mg/kg): 19.2%; AUCRatio (Dosage Calibration) ([5]; po, 5 mg/kg): 14.1%
6 | COc1cc(OC)c2c(=O)[nH]c(-c3cc(C)c(OCCO)c(C)c3)nc2c1 [Compound H130, 2-(4-(2-hydroxyethoxy)-3,5-dimethylphenyl)-5,7-dimethoxyquinazoline-4(3H)-one, reference compound] |  |  |  |  |  |  |  | −0.15 |  |  |  |  |  | -1.03 | Heart eNOS (db/db mice): 123%; Serum NO (db/db mice): 111%; Aorta eNOS (apoE−/− mice; [6]): 105%; ApoA1 (apoE−/− mice; [6]): 130%; Heart eNOS (apoE−/− mice; [6]): 115%; Serum NO (apoE−/− mice; [6]): 108%; Serum eNOS (apoE−/− mice; [6]): 107%; HDL-C (apoE−/− mice; [7]): 86 ± 13 mg/dL; LDL-C (apoE−/− mice; [7]): 273 ± 33 mg/dL; TC (apoE−/− mice; [7]): 1005 ± 44 mg/dL; HNO release detected ([2]; within 1.5 h): no HNO release can be detected
